Test results as given in patent US20090215894A1, “INHIBITION OF PHOSPHATASE ACTIVITY OF SOLUBLE EPOXIDE HYDROLASE AMINO TERMINUS AND USES THEREOF” (REGENTS OF THE UNIVERSITY OF CALIFORNIA, priority 2005, published 2009).

What was measured:
[1] = biological target: T1, Human sEH Cterm-EH activity (Homo sapiens, UniProt P34913); experiment: Cterm-EH inhibition IC50 with 4-nitrophenyl-trans-2,3-epoxy-3-phenylpropyl carbonate; assay type: biochemical; details: substrate 50 μM, 5 min preincubation, 30° C.; read-out: IC50
T1 construct: use of a truncated enzyme from crude extract versus purified full-length human sEH; made in house; host or cells: baculovirus expression system (insect cells)
T1 sequence (P34913 1-555): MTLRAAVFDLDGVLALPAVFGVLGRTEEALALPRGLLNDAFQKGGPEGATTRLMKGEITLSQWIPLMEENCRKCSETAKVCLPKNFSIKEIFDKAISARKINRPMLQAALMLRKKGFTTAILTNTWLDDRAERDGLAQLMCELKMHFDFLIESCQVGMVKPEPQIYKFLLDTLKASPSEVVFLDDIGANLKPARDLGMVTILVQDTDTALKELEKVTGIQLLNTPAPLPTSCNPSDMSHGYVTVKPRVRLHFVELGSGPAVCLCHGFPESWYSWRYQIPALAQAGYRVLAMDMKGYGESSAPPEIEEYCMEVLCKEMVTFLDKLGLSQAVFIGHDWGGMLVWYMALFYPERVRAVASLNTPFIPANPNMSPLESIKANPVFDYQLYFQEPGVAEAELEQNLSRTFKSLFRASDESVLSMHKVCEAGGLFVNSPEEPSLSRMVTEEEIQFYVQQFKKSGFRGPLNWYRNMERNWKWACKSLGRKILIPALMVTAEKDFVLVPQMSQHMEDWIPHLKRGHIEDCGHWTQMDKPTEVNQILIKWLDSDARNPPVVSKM

[2] = biological target: T1, Human sEH Cterm-EH activity; experiment: Cterm-EH dissociation constant with [3H]-trans-1,3-diphenylpropene oxide; assay type: biochemical
Protocol: For the Cterm-EH activity, dissociation constants were determined using racemic [^3H]-trans-1,3-diphenylpropene oxide as substrate. […] Velocity was measured as described (Borhan et al., Anal. Biochem. 231, 188-200 (1995)). […] Results are mean±standard deviation of three separate determination of KI.

full length human sEH = biological target: T2, full length human sEH (Homo sapiens, UniProt P34913); experiment: EH activity inhibition, full length human sEH; assay type: biochemical
T2 construct: use of a truncated enzyme from crude extract versus purified full-length human sEH; made in house; host or cells: baculovirus expression system (insect cells)
T2 sequence (P34913 1-555): T1 sequence (P34913 1-555)
Protocol: Nterm-Phos activity was measured in Bis-Tris HCl buffer (25 mM PH 7.0) containing 0.1 mg/mL of Fraction V BSA and 1 mM of MgCl2 (buffer A) at 30° C. […] APHP activity was measured as described using 7 as substrate (Newman et al., Proc. Natl. Acad. Sci. USA. 100, 1558-1563 (2003)). Compounds 34-37 were incubated separately with the enzyme for a given time, and then the reaction was stopped by the addition of 100 μL of methanol. The reaction products for compounds 34-37 were extracted with 500 μL of ethyl acetate. The quantification of the alcohol products was performed by LC/MS analysis of 2 μL of the organic phase. The Cterm-EH activity was measured as described previously in buffer A, using either racemic 4-nitrophenyl-trans-2,3-epoxy-3-phenylpropyl carbonate (Dietze et al., Anal. Biochem. 216, 176-187 (1994)) or racemic [^3H]-trans-1,3-diphenylpropene oxide as substrate (Borhan et al., Anal. Biochem. 231, 188-200 (1995)). This latter substrate was also used to measure the activity of the cress sEH and the truncated human sEH.

truncated human sEH = biological target: T3, truncated human sEH (Homo sapiens, UniProt P34913); experiment: EH activity inhibition, N-terminally truncated human sEH; assay type: biochemical
T3 construct: C-terminal region (Mel^237-Met^554) of human sEH was amplified by PCR; made in house; host or cells: baculovirus (pFastBac1) in high-5 Trichoplusia ni cells; 10,000 g supernatant used as crude extract
T3 sequence (P34913 237-555 limits assumed): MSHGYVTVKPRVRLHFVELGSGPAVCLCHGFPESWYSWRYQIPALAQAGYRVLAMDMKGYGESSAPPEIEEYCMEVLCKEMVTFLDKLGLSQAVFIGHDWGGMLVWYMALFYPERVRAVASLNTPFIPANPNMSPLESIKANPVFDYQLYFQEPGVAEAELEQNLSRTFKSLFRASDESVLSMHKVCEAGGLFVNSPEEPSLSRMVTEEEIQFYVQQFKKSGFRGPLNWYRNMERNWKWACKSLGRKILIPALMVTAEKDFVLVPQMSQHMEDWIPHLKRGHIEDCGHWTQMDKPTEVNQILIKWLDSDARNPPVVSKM
Excerpt: (§1) Recombinant human sEH (HsEH) was produced in a baculovirus expression system (Beetham et al., Arch. Biochem. Biophys. 305, 197-201 (1993)) and purified by affinity chromatography (Wixtrom et al., Anal. Biochem. 169, 71-80 (1983)). […] No detectable esterase or glutathione transferase activities were observed. Recombinant mouse-eared cress sEH was produced in a baculovirus expression system and purified as described (Morisseau et al., Arch. Biochem. Biophys. 378, 321-332 (2000)). The nucleotide sequence of the C-terminal region (Mel^[…]) of human sEH was amplified by PCR using [NT] as forward primer and [NT] as reverse primer. The resulting band was gel purified and restricted with EcoR1 and Sal1, which were introduced by the primers, and the restricted fragment sub-cloned into the multiple cloning site of the pFastBac1 vector (Invitrogen). After verification of the obtained nucleotide sequence, the recombinant pFastBac1 plasmid was introduced in competent DH10bac cells leading to the formation of a recombinant plasmid containing the DNA insert. The isolated recombinant plasmid was used to produce recombinant baculovirus in Sf21 cells following procedures recommended by the manufacturer. The truncated HsEH was produced in high-5 Trichloplusia ni cell cultures following published procedures (Beetham et al., Arch. Biochem. Biophys. 305, 197-201 (1993)). Seventy-two hours post infection, the cells were collected by centrifugation (2,000 g×20 min). The cell pellet was then suspended in a sodium phosphate buffer (76 mM, pH 7.4) containing 1 mM of phenylmethylsulfonyl fluoride, EDTA and dithiothretol. The suspension was then homogenized by Polytron at 9,000 rpm for 1 min and centrifuged (10,000 g×20 min). The resulting supernatant was frozen at -80° C. until used for experiments. […] Protein concentrations were quantified with the Pierce BCA assay (Pierce; Rockford, Ill.) using Fraction V bovine serum albumin (BSA) as the calibrating standard. Nterm-Phos activity was measured in Bis-Tris HCl buffer (25 mM PH 7.0) containing 0.1 mg/mL of Fraction V BSA and 1 mM of MgCl2 (buffer A) at 30° C. […] APHP activity was measured as described using 7 as substrate (Newman et al., Proc. Natl. Acad. Sci. USA. 100, 1558-1563 (2003)). Compounds 34-37 were incubated separately with the enzyme for a given time, and then the reaction was stopped by the addition of 100 μL of methanol. The reaction products for compounds 34-37 were extracted with 500 μL of ethyl acetate. The quantification of the alcohol products was performed by LC/MS analysis of 2 μL of the organic phase. […] Biochem. 231, 188-200 (1995)). This latter substrate was also used to measure the activity of the cress sEH and the truncated human sEH.

cress sEH = experiment: EH activity inhibition, cress sEH; assay type: biochemical, mouse-eared cress
Excerpt: as §1

Nterm-phos = biological target: T4, Nterm-phos (Homo sapiens, UniProt P34913); experiment: Sulfates tested as substrates for Nterm-phos (LC-MS of alcohol or diol); assay type: biochemical; details: enzyme 400 nM, compound 100 μM, one hour
T4 construct: use of a truncated enzyme from crude extract versus purified full-length human sEH; made in house; host or cells: baculovirus expression system (insect cells)
T4 sequence (P34913 1-555): T1 sequence (P34913 1-555)
Protocol: To understand the mode of action of these new inhibitors, compounds 1 and 2 were tested as substrates for the Nterm-phos. Enzyme was incubated (400 nM) with the compounds (100 μM) for an hour and analyzed the mixture by LC-MS to detect any alcohol or diol formed (Newman et al., Proc. Natl. Acad. Sci. USA. 100, 1558-1563 (2003)). Formation of any alcohol or diol was not detected.

| IC50 [1] [µM] | KI at Cterm-EH relative to KI at Nterm-Phos [2] | Ki ([2]; non-competitive inhibition, n=3) [µM] | inhibition at 100 µM (full length human sEH) [%] | inhibition at 100 µM (truncated human sEH) [%] | Formation of any alcohol or diol (Nterm-phos) | SMILES | Inhibition at 100 μM (%) (cress sEH) |
| --- | --- | --- | --- | --- | --- | --- | --- |
| 21 ± 5 |  |  | 72 ± 2 | 67 ± 3 |  | CCCCCCCCCC(CCCCCCCC)OS(=O)(=O)O (stereo not drawn) [Compound 3, 9-Octadecanyl-sulfate] | <2 |
| > 100 |  |  | 26 ± 3 | 16 ± 2 |  | CCCCCCC(C/C=C\CCCCCCCC(=O)O)OS(=O)(=O)O (stereo not drawn) [Compound 4, 12-Sulfonoxy-cis-9-octadecenoic acid] | <2 |
| 16 ± 3 |  |  | 68 ± 2 | 44 ± 4 |  | CCCCCCC(C/C=C/CCCCCCCC(=O)O)OS(=O)(=O)O (stereo not drawn) [Compound 5, 12-Sulfonoxy-trans-9-octadecenoic acid] | <2 |

Further lines, the compound ahead of its results:

| SMILES | IC50 [1] [µM] | KI at Cterm-EH relative to KI at Nterm-Phos [2] | Ki ([2]; non-competitive inhibition, n=3) [µM] | inhibition at 100 µM (full length human sEH) [%] | inhibition at 100 µM (truncated human sEH) [%] | Formation of any alcohol or diol (Nterm-phos) | Inhibition at 100 μM (%) (cress sEH) |
| --- | --- | --- | --- | --- | --- | --- | --- |
| CCCCCCCCC(CCCCCCCCC(=O)O)OS(=O)(=O)O (stereo not drawn) [Compound 1, 10-Sulfonooxy-octadecanoic acid] | 28 ± 2 | roughly 100 fold | 31 ± 2 | 86 ± 2 | 89 ± 3 | not detected | <2 |
| CCCCCCCCC(OS(=O)(=O)O)C(O)CCCCCCCC(=O)O (stereo not drawn) [Compound 2, 9/10-Sulfonooxy-hydroxy-octadecanoic acid] | 90 ± 5 |  |  | 54 ± 3 | 58 ± 2 | not detected | <2 |
